Assays:
Type in all cases: cell-based, human
[1] = system: HLA-II complexes (HLA-DR, HLA-DP, HLA-DQ) of A549/ATC cells
[2] = system: HLA-II complexes (HLA-DR, HLA-DP, HLA-DQ) of HEK293T/ATC cells
[3] = system: HLA-II complexes of A549/ATC and HEK293T/ATC cells

| Sequence | Unique A549 peptides in segment [1] | Unique HEK293T peptides in segment [2] | Unique peptides in segment [3] | Detection as HLA-II peptide by LC-MS/MS [2] |
| --- | --- | --- | --- | --- |
| AALQIPFAMQMAYRENGIG [S:892-910] | 0 | 11 | 11 | – |
| ALHFLLFFRALPKS [ORF3a.iORF1: 28-41] | 0 | 1 | 1 | observed in the same fraction (fxn 3) in two biological replicates |
| ATREASVYAWNRKRISN [S:344-360] | 0 | 3 | 3 | – |
| CSNLLLQYGSFCTQLNRALTGIAVEQDKNTQE [S:749-780] | 0 | 10 | 10 | – |
| DGSEDNQTTTIQTIVE [nsp3: 174-189] | 0 | 1 | 1 | – |
| DSFVIRGDEVRQIAPG [S:398-413] | 0 | 1 | 1 | – |
| EPQIITTDNTFVSGN [S:1111-1125] | 1 | 0 | 1 | – |
| IAQFAPSASAFFG [N: 304-316] | 1 | 0 | 1 | – |
| ICASYQTQTNSPRRA [S:670-684] | 0 | 1 | 1 | – |
| INITRFQTLLALHRSYL [S: 233-249] | 0 | 1 | 1 | – |
| KKKADETQALPQRQKKQQTVTLLPAADLDDESKQLQQSMSSADSTQA [N: 373-419] | 5 | 69 | 69 | – |
| MAGNGGDAALALLLLDRLNQLESKMSGKGQQQQGQTVT [N: 210-247] | 21 | 0 | 21 | – |
| MDGSIIQFPNTYLEGSVR [nsp4: 194-211] | 0 | 5 | 5 | – |
| MDLFMRIFTIGTVTLKQGEIKDATPSDF [ORF3a: 1-28] | 1 | 4 | 4 | – |
| MDPKISEMHPALRLVDPQIQLAVTRMENA [ORF9b: 1-29] | 0 | 8 | 8 | – |
| NVPLHGTILTRPLLESELVIGAVILRGHLRIAGHHLGRCDIKDLPKEITVA [M: 121-171] | 16 | 18 | 34 | – |
| RIGMEVTPSGTWLTYTGAIKLDDKDPNEKDQVILLNKHIDAYKTEPP [N: 319-365] | 36 | 17 | 44 | – |
| SDNGPQNQRNAPRITE [N: 2-17] | 1 | 0 | 1 | – |
| SPDAVTAYNGYLTSSSK [nsp3: 661-677] | 0 | 1 | 1 | – |
| SVASQSIIAYTMSLGAEN [S:686-703] | 0 | 3 | 3 | – |
| TDHSSSSDNIALLVQ [M: 208-222] | 2 | 2 | 2 | – |
| TEIYQAGSTPCNGVEG [S:470-485] | 0 | 2 | 2 | – |
| TGPEAGLPYGANKDG [N: 115-129] | 1 | 0 | 1 | – |
| TPTWRVYSTGSNVFQTRAG [S:630-648] | 1 | 2 | 3 | – |
| TQLPPAYTNSFTRGVYYPDKVERSSVLHSTQDLFLPFFS [S: 22-60] | 13 | 0 | 13 | – |
| TQQLIRAAEIRASANLA [S:1009-1025] | 0 | 14 | 14 | – |
| TVEKGIYQTSNERVQPTES [S:307-325] | 3 | 3 | 4 | – |
| VGPKVYPIILRLGSPLS [ORF9b: 37-53] | 0 | 2 | 2 | – |
| YIINLIIKNLSKS [ORF6: 31-43] | 1 | 0 | 1 | – |

From US20260097115A1 (priority 2023, published 2026)
